Experimental data as given in PubChem BioAssay AID1259407 (Chemical Carcinogenesis Research Information System (CCRIS), 2018).
Activity calls are given as the source filed them. No rule for the calls is given here.

System: CCRIS mutagenicity, Ames/micronucleus/aberration tests
Test: CCRIS mutagenicity studies
[1] = Test System: AMES SALMONELLA TYPHIMURIUM, Strain/Indicator: TA98, Metabolic Activation: NONE, Method: PREINCUBATION
[2] = Test System: AMES SALMONELLA TYPHIMURIUM, Strain/Indicator: TA98, Metabolic Activation: NONE, Method: STANDARD PLATE
[3] = Test System: AMES SALMONELLA TYPHIMURIUM, Strain/Indicator: TA98, Metabolic Activation: RAT, LIVER, S-9, AROCLOR 1254, Method: PREINCUBATION
[4] = Test System: AMES SALMONELLA TYPHIMURIUM, Strain/Indicator: TA98, Metabolic Activation: RAT, LIVER, S-9, AROCLOR 1254, Method: STANDARD PLATE
[5] = Test System: AMES SALMONELLA TYPHIMURIUM, Strain/Indicator: TA100, Metabolic Activation: NONE, Method: STANDARD PLATE
[6] = Test System: AMES SALMONELLA TYPHIMURIUM, Strain/Indicator: TA100, Metabolic Activation: RAT, LIVER, S-9, AROCLOR 1254, Method: STANDARD PLATE
[7] = Test System: AMES SALMONELLA TYPHIMURIUM, Strain/Indicator: TA1535, Metabolic Activation: NONE, Method: STANDARD PLATE
[8] = Test System: AMES SALMONELLA TYPHIMURIUM, Strain/Indicator: TA1535, Metabolic Activation: RAT, LIVER, S-9, AROCLOR 1254, Method: STANDARD PLATE
[9] = Test System: AMES SALMONELLA TYPHIMURIUM, Strain/Indicator: TA1537, Metabolic Activation: NONE, Method: STANDARD PLATE
[10] = Test System: AMES SALMONELLA TYPHIMURIUM, Strain/Indicator: TA1537, Metabolic Activation: RAT, LIVER, S-9, AROCLOR 1254, Method: STANDARD PLATE
[11] = Test System: AMES SALMONELLA TYPHIMURIUM, Strain/Indicator: TA1538, Metabolic Activation: NONE, Method: STANDARD PLATE
[12] = Test System: AMES SALMONELLA TYPHIMURIUM, Strain/Indicator: TA1538, Metabolic Activation: RAT, LIVER, S-9, AROCLOR 1254, Method: STANDARD PLATE

With `CN1CCCC1=O` the mutagenic call (Test System: AMES SALMONELLA TYPHIMURIUM, Strain/Indicator: TA97, Metabolic Activation: NONE, Method: STANDARD PLATE) was “inactive; negative”, the mutagenic call (Test System: AMES SALMONELLA TYPHIMURIUM, Strain/Indicator: TA97, Metabolic Activation: RAT, LIVER, S-9, AROCLOR 1254, Method: STANDARD PLATE) was “inactive; negative” and the mutagenic call [1] was “inactive; negative”. The mutagenic call [2] was “inactive; negative”, the mutagenic call [3] was “inactive; negative” and the mutagenic call [4] was “inactive; negative”. For the same compound, the mutagenic call [5] was “inactive; negative”, the mutagenic call [6] was “inactive; negative” and the mutagenic call (Test System: AMES SALMONELLA TYPHIMURIUM, Strain/Indicator: TA102, Metabolic Activation: NONE, Method: STANDARD PLATE) was “inactive; negative”. The mutagenic call (Test System: AMES SALMONELLA TYPHIMURIUM, Strain/Indicator: TA102, Metabolic Activation: RAT, LIVER, S-9, AROCLOR 1254, Method: STANDARD PLATE) was “inactive; negative”, the mutagenic call (Test System: AMES SALMONELLA TYPHIMURIUM, Strain/Indicator: TA104, Metabolic Activation: NONE, Method: PREINCUBATION) was “inactive; negative” and the mutagenic call (Test System: AMES SALMONELLA TYPHIMURIUM, Strain/Indicator: TA104, Metabolic Activation: NONE, Method: STANDARD PLATE) was “inactive; negative”. The mutagenic call (Test System: AMES SALMONELLA TYPHIMURIUM, Strain/Indicator: TA104, Metabolic Activation: RAT, LIVER, S-9, AROCLOR 1254, Method: PREINCUBATION) was “inactive; negative”, the mutagenic call (Test System: AMES SALMONELLA TYPHIMURIUM, Strain/Indicator: TA104, Metabolic Activation: RAT, LIVER, S-9, AROCLOR 1254, Method: STANDARD PLATE) was “inactive; negative” and the mutagenic call (Test System: AMES SALMONELLA TYPHIMURIUM, Strain/Indicator: TA2638, Metabolic Activation: NONE, Method: STANDARD PLATE) was “inactive; negative”. The mutagenic call (Test System: AMES SALMONELLA TYPHIMURIUM, Strain/Indicator: TA2638, Metabolic Activation: RAT, LIVER, S-9, AROCLOR 1254, Method: STANDARD PLATE) was “inactive; negative”, the mutagenic call (Test System: AMES SALMONELLA TYPHIMURIUM, Strain/Indicator: UTH8413, Metabolic Activation: NONE, Method: STANDARD PLATE) was “inactive; negative” and the mutagenic call (Test System: AMES SALMONELLA TYPHIMURIUM, Strain/Indicator: UTH8413, Metabolic Activation: RAT, LIVER, S-9, AROCLOR 1254, Method: STANDARD PLATE) was “inactive; negative”. The mutagenic call (Test System: AMES SALMONELLA TYPHIMURIUM, Strain/Indicator: UTH8414, Metabolic Activation: NONE, Method: STANDARD PLATE) was “inactive; negative” and the mutagenic call (Test System: AMES SALMONELLA TYPHIMURIUM, Strain/Indicator: UTH8414, Metabolic Activation: RAT, LIVER, S-9, AROCLOR 1254, Method: STANDARD PLATE) was “inactive; negative”.

With `O[C@H]1c2cccc3ccc4cccc(c4c23)[C@@H]1O` the mutagenic call [1] was “inactive; negative”, the mutagenic call [3] was “inactive; negative” and the mutagenic call (Test System: AMES SALMONELLA TYPHIMURIUM, Strain/Indicator: TA100, Metabolic Activation: NONE, Method: PREINCUBATION) was “inactive; negative”. For the same compound, the mutagenic call (Test System: AMES SALMONELLA TYPHIMURIUM, Strain/Indicator: TA100, Metabolic Activation: RAT, LIVER, S-9, AROCLOR 1254, Method: PREINCUBATION) was “inactive; negative”.

With `O.O=C([O-])c1ccccn1.O=C([O-])c1ccccn1.O=C([O-])c1ccccn1.[Cr+3]` the mutagenic call (End Point: In vivo micronucleus, Test System: Peripheral blood normochromatic erythrocytes, Species: Mouse, Strain/Sex: B6C3F1/Female, Route: Oral) was “inactive; negative”, the mutagenic call (End Point: In vivo micronucleus, Test System: Peripheral blood normochromatic erythrocytes, Species: Mouse, Strain/Sex: B6C3F1/Male, Route: Oral) was “inactive; negative” and the mutagenic call (Test System: Ames Salmonella typhimurium, Strain/Indicator: TA98, Metabolic Activation: None, Method: Preincubation) was “inactive; negative”. The mutagenic call (Test System: Ames Salmonella typhimurium, Strain/Indicator: TA98, Metabolic Activation: Rat, Liver, S-9, Aroclor 1254 (10%), Method: Preincubation) was “inactive; negative”, the mutagenic call (Test System: Ames Salmonella typhimurium, Strain/Indicator: TA98, Metabolic Activation: Rat, Liver, S-9, Phenobarbital and 5,6-benzoflavone, Method: Preincubation) was “inactive; negative” and the mutagenic call (Test System: Ames Salmonella typhimurium, Strain/Indicator: TA100, Metabolic Activation: None, Method: Preincubation) was “inactive; negative”. The mutagenic call (Test System: Ames Salmonella typhimurium, Strain/Indicator: TA100, Metabolic Activation: Rat, Liver, S-9, Aroclor 1254 (10%), Method: Preincubation) was “inactive; negative”, the mutagenic call (Test System: Ames Salmonella typhimurium, Strain/Indicator: TA100, Metabolic Activation: Rat, Liver, S-9, Phenobarbital and 5,6-benzoflavone, Method: Preincubation) was “inactive; negative” and the mutagenic call (Test System: Ames Salmonella typhimurium, Strain/Indicator: TA1535, Metabolic Activation: None, Method: Preincubation) was “inactive; negative”. The mutagenic call (Test System: Ames Salmonella typhimurium, Strain/Indicator: TA1535, Metabolic Activation: Rat, Liver, S-9, Phenobarbital and 5,6-benzoflavone, Method: Preincubation) was “inactive; negative”, the mutagenic call (Test System: Ames Salmonella typhimurium, Strain/Indicator: TA1537, Metabolic Activation: None, Method: Preincubation) was “inactive; negative” and the mutagenic call (Test System: Ames Salmonella typhimurium, Strain/Indicator: TA1537, Metabolic Activation: Rat, Liver, S-9, Phenobarbital and 5,6-benzoflavone, Method: Preincubation) was “inactive; negative”. For the same compound, the mutagenic call (Test System: E. coli, Strain/Indicator: WP2 uvrA/pKM101, Metabolic Activation: None, Method: Preincubation) was “inactive; negative”, the mutagenic call (Test System: E. coli, Strain/Indicator: WP2uvrA/pKM101, Metabolic Activation: None, Method: Preincubation) was “inactive; negative” and the mutagenic call (Test System: E. coli, Strain/Indicator: WP2 uvrA/pKM101, Metabolic Activation: Rat, Liver, S-9, Aroclor 1254 (10%), Method: Preincubation) was “inactive; negative”. The mutagenic call (Test System: E. coli, Strain/Indicator: WP2uvrA/pKM101, Metabolic Activation: Rat, Liver, S-9, Phenobarbital and 5,6-benzoflavone, Method: Preincubation) was “inactive; negative”.

In the case of `[N-]=[N+]=O`, the mutagenic call (Test System: CHINESE HAMSTER V-79, Strain/Indicator: V-79/8-AZAGUANINE, Metabolic Activation: NONE, Method: STANDARD PLATE) is reported as “active; positive”.

For `Cc1c(N)cc([N+](=O)[O-])c(N)c1C`, the mutagenic call [2] was “active; positive”, the mutagenic call [4] was “active; positive” and the mutagenic call [5] was “inactive; negative”. For the same compound, the mutagenic call [6] was “inactive; negative”, the mutagenic call [7] was “inactive; negative” and the mutagenic call [8] was “inactive; negative”. The mutagenic call [9] was “inactive; negative”, the mutagenic call [10] was “inactive; negative” and the mutagenic call [11] was “active; positive”. The mutagenic call [12] was “active; positive”.

`O=[Si]=O` was tested, and the mutagenic call [2] was “inactive; negative”, the mutagenic call [4] was “inactive; negative” and the mutagenic call [5] was “inactive; negative”. For the same compound, the mutagenic call [6] was “inactive; negative”, the mutagenic call [7] was “inactive; negative” and the mutagenic call [8] was “inactive; negative”. For the same compound, the mutagenic call [9] was “inactive; negative”, the mutagenic call [10] was “inactive; negative” and the mutagenic call [11] was “inactive; negative”. For the same compound, the mutagenic call [12] was “inactive; negative”, the mutagenic call (Test System: E. COLI, Strain/Indicator: WP2, Metabolic Activation: NONE, Method: STANDARD PLATE) was “inactive; negative” and the mutagenic call (Test System: E. COLI, Strain/Indicator: WP2, Metabolic Activation: RAT, LIVER, S-9, AROCLOR 1254, Method: STANDARD PLATE) was “inactive; negative”. For the same compound, the mutagenic call (Test System: HUMAN-HAMSTER HYBRID AL CELLS, Strain/Indicator: AL CELLS (HPRT), Metabolic Activation: NONE, Method: PREINCUBATION) was “active; positive”.
